# Measured values: ChEMBL document CHEMBL1201862, “PubChem BioAssay data set” (2004)
# Active and inactive are the calls of the source. Rule as the data show it, for most assays here: actives have a measured IC50 and inactives only a lower limit.
# What was measured:
# Type in all cases: functional
# Caspase-3 = biological target: T1, Caspase-3 (Homo sapiens, UniProt P42574);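 also: Dose-response selectivity test against caspase-3 for candidate inhibitors of sentrin-specific proteases (SENPs)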
# T1 sequence (P42574 whole entry): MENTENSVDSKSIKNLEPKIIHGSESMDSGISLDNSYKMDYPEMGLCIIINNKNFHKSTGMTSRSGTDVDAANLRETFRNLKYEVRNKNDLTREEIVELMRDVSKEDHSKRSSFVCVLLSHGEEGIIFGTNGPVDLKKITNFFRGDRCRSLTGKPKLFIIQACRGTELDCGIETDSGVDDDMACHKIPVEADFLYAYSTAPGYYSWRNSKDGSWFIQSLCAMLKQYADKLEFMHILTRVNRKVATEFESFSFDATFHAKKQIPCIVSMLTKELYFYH
# [1] = biological target: T2, Sentrin-specific protease 6 (Homo sapiens, UniProt Q9GZR1);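 also: Luminescence-based dose-response confirmatory assay of SENP6 inhibition, following up an ultra-high-throughput screen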
# T2 sequence (Q9GZR1 whole entry): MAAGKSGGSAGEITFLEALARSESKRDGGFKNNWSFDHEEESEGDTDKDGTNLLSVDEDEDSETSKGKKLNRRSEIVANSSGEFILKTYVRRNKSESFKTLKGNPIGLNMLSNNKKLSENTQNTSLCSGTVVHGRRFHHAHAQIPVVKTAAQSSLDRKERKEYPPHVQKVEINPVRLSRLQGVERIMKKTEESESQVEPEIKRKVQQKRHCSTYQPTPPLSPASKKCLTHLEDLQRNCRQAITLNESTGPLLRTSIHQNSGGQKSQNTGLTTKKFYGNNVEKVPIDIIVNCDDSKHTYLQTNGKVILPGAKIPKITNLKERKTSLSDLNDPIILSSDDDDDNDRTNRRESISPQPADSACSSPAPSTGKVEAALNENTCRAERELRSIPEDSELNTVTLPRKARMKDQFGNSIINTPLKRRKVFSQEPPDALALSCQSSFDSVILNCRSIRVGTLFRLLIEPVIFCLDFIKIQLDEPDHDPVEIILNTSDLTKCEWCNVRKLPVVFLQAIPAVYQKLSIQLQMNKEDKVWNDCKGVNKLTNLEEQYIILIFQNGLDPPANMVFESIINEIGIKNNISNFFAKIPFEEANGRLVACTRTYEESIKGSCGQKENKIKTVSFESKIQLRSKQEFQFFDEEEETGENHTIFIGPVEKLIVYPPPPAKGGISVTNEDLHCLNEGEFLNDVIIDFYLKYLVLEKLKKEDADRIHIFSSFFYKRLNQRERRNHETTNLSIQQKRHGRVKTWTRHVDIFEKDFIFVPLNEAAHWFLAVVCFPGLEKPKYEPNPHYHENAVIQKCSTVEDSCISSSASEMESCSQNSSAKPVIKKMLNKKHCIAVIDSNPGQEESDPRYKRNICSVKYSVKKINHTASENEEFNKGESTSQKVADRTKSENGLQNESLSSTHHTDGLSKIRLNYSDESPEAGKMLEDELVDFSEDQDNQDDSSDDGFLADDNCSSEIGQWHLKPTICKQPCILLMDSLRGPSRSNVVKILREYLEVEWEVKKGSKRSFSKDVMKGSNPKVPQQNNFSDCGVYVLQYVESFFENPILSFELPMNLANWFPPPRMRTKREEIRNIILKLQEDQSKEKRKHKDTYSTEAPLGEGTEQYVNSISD
# [2] = biological target: T3, Replicative DNA helicase DnaB (Mycobacterium tuberculosis, UniProt P9WMR3); assay: DnaB intein splicing inhibitors, dose response, biochemical, cell-free fluorescence (AID 449749)
# T3 sequence (P9WMR3 whole entry): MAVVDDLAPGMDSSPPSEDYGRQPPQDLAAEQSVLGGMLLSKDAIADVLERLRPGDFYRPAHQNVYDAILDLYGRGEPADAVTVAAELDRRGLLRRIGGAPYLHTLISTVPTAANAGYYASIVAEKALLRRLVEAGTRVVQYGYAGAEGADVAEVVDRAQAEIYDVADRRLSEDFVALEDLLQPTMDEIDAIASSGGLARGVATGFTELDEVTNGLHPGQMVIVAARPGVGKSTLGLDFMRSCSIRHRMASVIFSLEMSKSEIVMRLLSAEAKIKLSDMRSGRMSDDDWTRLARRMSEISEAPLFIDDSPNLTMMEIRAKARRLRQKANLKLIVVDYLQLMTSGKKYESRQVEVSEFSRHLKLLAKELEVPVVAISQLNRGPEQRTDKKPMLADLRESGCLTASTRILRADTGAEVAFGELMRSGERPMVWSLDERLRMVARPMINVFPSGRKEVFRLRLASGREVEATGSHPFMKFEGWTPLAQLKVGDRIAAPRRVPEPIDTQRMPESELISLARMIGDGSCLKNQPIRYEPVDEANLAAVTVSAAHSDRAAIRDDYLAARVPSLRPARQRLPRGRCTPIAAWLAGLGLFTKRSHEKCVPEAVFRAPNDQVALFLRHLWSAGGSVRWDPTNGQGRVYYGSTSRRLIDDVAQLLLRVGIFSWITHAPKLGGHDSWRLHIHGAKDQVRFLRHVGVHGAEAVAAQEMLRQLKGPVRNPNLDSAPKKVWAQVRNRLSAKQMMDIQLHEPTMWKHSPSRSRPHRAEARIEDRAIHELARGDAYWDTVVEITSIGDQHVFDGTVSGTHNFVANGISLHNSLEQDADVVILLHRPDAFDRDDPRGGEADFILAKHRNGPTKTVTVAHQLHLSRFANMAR
SMILES,IC50 (Caspase-3),IC50 [1],AC50 [2]
C=CCNC1=C(Cl)C(=O)c2ccccc2C1=O,3.62 µM (active),9.07 µM (active),4.75 µM (active)
CN(C)c1ccc(-c2nnc(-c3cccs3)o2)cc1,22.3 µM (active),> 100 µM (inactive),
CCOC(=O)C(C(=O)OCC)c1cc(Br)c2noc3c2c1C(=O)c1ccccc1-3,,,27.6 µM (active)
